Tested on: AR and/or GR target genes KLK4, KLF9, FKBP5, PER1, SGK1
Assay: Biomarker analysis by RT-qPCR, 48 hours
Assay type: cell-based, Human
Settings: CWR22PC and 22Rv1 cells, 0.1 nM R1881, 1 µM degrader
Protocol: CWR22PC and 22RV1 cells were seeded at a density of 2 × 10^5 cells/well in 6-well plates in 2 mL of RPMI-1640 media supplemented with 10% charcoal-stripped serum (CSS). Cells were treated with 100 pM R1881, 30 nM dexamethasone, 0.5 µM compound 1, 1 µM of ARD1 or ARD2, or combinations thereof as indicated and maintained at 37° C. 48 hours later, media was removed, and cells were washed once with PBS and then harvested for mRNA analysis.
Adherent cells or cell pellets harvested for mRNA analysis were first washed once with PBS and then resuspended in 600 µL of RLT lysis buffer (Qiagen Inc.) supplemented with 1% of betamercaptoethanol. RNA was extracted by QIAcube using the RNeasy Mini QIAcube kit (Qiagen#74116) according to manufacturer’s instructions. The extracted RNA samples were then quantified using a Nanodrop 8000 Spectrophotometer. RT-qPCR reactions were set up in triplicate using 3 µL of 3 ng/ µL of RNA in 7 µL of pre-mixed SensiFAST™ SYBR No-ROX One-Step Kit reagents (BIOLINE# BIO-98005). The RT-qPCR reactions were run on a Bio-Rad CFX384 Real-Time PCR System and data was plotted with GraphPad Prism 8 software.
CWR22PC and 22Rv1 cells were seeded at a density of 2 × 10^5 cells/well in 6-well plates in 2 mL of RPMI-1640 media supplemented with 10% charcoal-stripped serum (CSS). […] 48 hours later, media was removed, and cells were washed once with PBS and then harvested for mRNA analysis.

## N#Cc1ccc(O[C@H]2CC[C@H](NC(=O)c3ccc(N4CCC(CN5CCN(c6cc7c(cc6F)C(=O)N(C6CCC(=O)NC6=O)C7=O)CC5)CC4)nn3)CC2)cc1Cl (stereo partly drawn) [ARV-110, N-[trans-4-(3-chloro-4-cyanophenoxy)cyclohexyl]-6-[4-[[4-[2-(2,6-dioxo-3-piperidinyl)-6-fluoro-2,3-dihydro-1,3-dioxo-1H-isoindol-5-yl]-1-piperazinyl]methyl]-1-piperidinyl]-3-pyridazinecarboxamide]
  expression induction by R1881 of AR target FKBP5: completely inhibited
  expression induction by R1881 of AR target KLK4: completely inhibited

Source: patent US20230302014A1, “USES OF GLUCOCORTICOID RECEPTOR (GR) ANTAGONIST AND ANDROGEN RECEPTOR (AR) DEGRADER COMBINATIONS” (ORIC Pharmaceuticals, Inc., priority 2020, published 2023)
